From patent US12594268B2, “Methods of treating Fabry disease in patients having a mutation in the GLA gene” (Amicus Therapeutics, Inc., priority 2018, dated 2026)
Changes are numbered by the printed parent chain.

What was measured:
Format in all cases: cell-based
[1] = molecular target: T1, α-Gal A mutant form S238G (Homo sapiens, UniProt P06280, S238G); assay: α-Gal A activity in lysates of transfected HEK-293 cells, S238G
T1 construct: expressed in transfected cells; host or cells: HEK-293
T1 sequence (P06280 32-429 S238G): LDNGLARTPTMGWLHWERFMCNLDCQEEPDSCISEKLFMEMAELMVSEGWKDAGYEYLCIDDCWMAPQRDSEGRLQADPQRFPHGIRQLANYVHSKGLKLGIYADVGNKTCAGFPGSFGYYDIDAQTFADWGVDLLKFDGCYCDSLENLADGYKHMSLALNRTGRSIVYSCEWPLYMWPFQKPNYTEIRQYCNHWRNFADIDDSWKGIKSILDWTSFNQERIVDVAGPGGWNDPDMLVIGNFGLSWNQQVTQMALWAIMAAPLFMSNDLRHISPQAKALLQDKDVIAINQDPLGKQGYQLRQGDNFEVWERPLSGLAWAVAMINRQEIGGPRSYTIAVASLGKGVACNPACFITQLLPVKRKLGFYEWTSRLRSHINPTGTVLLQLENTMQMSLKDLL
Experimental: (§1) Baseline and 10 μM migalastat α-Gal A activity: Differences in the α-Gal A activity between lysates incubated in the absence and presence of 10 μM migalastat were determined using a one-tailed, Mann Whitney U test; an increase at 10 μM migalastat with a p<0.05 was considered significant.
(§2) 10 μM migalastat α-Gal A activity (% WT)=(α-Gal A activity in mutant transfected cell lysates incubated with 10 μM migalastat÷α-Gal A activity in wild-type transfected cell lysates without migalastat)*100.
(§3) Absolute increase (% WT)=is the 10 μM migalastat α-Gal A activity (% WT) minus the baseline α-Gal A activity (% WT).
(§4) Relative increase is the 10 μM migalastat α-Gal A activity in mutant transfected cell lysates÷baseline α-Gal A activity in mutant transfected cell lysates incubated without migalastat.

[2] = molecular target: T2, α-Gal A mutant form Q330P (Homo sapiens, UniProt P06280, Q330P); assay: α-Gal A activity in lysates of transfected HEK-293 cells, Q330P
T2 construct: expressed in transfected cells; host or cells: HEK-293
T2 sequence (P06280 32-429 Q330P): T1 sequence (P06280 32-429 S238G) with G207S, Q299P
Experimental: as §1, §2, §3, §4

[3] = molecular target: T3, α-Gal A mutant form R112L (Homo sapiens, UniProt P06280, R112L); assay: α-Gal A activity in lysates of transfected HEK-293 cells, R112L
T3 construct: expressed in transfected cells; host or cells: HEK-293
T3 sequence (P06280 32-429 R112L): T1 sequence (P06280 32-429 S238G) with R81L, G207S
Experimental: as §1, §2, §3, §4

[4] = molecular target: T4, α-Gal A mutant form N408Y (Homo sapiens, UniProt P06280, N408Y); assay: α-Gal A activity in lysates of transfected HEK-293 cells, N408Y
T4 construct: expressed in transfected cells; host or cells: HEK-293
T4 sequence (P06280 32-429 N408Y): T1 sequence (P06280 32-429 S238G) with G207S, N377Y
Experimental: as §1, §2, §3, §4

[5] = molecular target: T5, α-Gal A mutant form W204L (Homo sapiens, UniProt P06280, W204L); assay: α-Gal A activity in lysates of transfected HEK-293 cells, W204L
T5 construct: expressed in transfected cells; host or cells: HEK-293
T5 sequence (P06280 32-429 W204L): T1 sequence (P06280 32-429 S238G) with W173L, G207S
Experimental: as §1, §2, §3, §4

[6] = 10 μM migalastat minus baseline
[7] = 10 μM migalastat ÷ baseline activity
[8] = HEK-293 lysates, 10 μM migalastat, 5 days, mean ± SEM

Absolute increase (% WT) [1, 6]: 67.7 % WT | Relative increase [1, 7]: 4.26 | 10 μM migalastat α-Gal A activity [1, 8]: 25106 ± 1611 nmol/mg/h | 10 μM migalastat α-Gal A activity (% WT) [1, 8]: 86.4 ± 7.2 % WT | Absolute increase (% WT) [2, 6]: 24.4 % WT | Relative increase [2, 7]: 2.21 | 10 μM migalastat α-Gal A activity [2, 8]: 12375 ± 664 nmol/mg/h | 10 μM migalastat α-Gal A activity (% WT) [2, 8]: 45.8 ± 1.9 % WT | Absolute increase (% WT) ([3]; 10 μM migalastat minus baseline (baseline BLD)): 7.5 % WT | 10 μM migalastat α-Gal A activity (% WT) [3, 8]: 7.5 ± 1.1 % WT | 10 μM migalastat α-Gal A activity ([3]; HEK-293 lysates, 10 μM migalastat, 5 days, mean ± SEM, baseline BLD): 2364 ± 296 nmol/mg/h | Absolute increase (% WT) [4, 6]: 44.6 % WT | Relative increase [4, 7]: 2.09 | 10 μM migalastat α-Gal A activity [4, 8]: 23273 ± 2965 nmol/mg/h | 10 μM migalastat α-Gal A activity (% WT) [4, 8]: 85.5 ± 7.7 % WT | Absolute increase (% WT) [5, 6]: 47.4 % WT | Relative increase [5, 7]: 2.02 | 10 μM migalastat α-Gal A activity [5, 8]: 32649 ± 3037 nmol/mg/h | 10 μM migalastat α-Gal A activity (% WT) [5, 8]: 84.3 ± 5.9 % WT
Structure (SMILES): OC[C@H]1NC[C@H](O)[C@@H](O)[C@H]1O [migalastat, (2R,3S,4R,5S)-2-(hydroxymethyl) piperdine-3,4,5-triol]
